Laboratory results as given in US12365709B2, “Immunomodulatory peptide” (INSTITUT NATIONAL UNI[…]-FRANCOIS CHAMPOLLION, priority 2017, dated 2025).
No end group written: not given here.

Key:
[1] = test system: macrophages derived from human monocytes; assay: Production of ROS by macrophages derived from human monocytes in response to C. albicans (luminol chemiluminescence); format: cell-based; details: macrophages treated 24 hours; yeast ratio per macrophage 3:1; vs untreated
From the text: To analyse the production of ROS, the macrophages derived from human monocytes have been treated, or not, with the peptide P17, P17, non-amidated, or with the following P17 fragments, P17(1-5), P17(1-7), P17(1-9), P17(1-11), P17(3-13), P17(5-13), P17(7-13) and P17(9-13); the fragments P17(1-5), P17(1-7), P17(1-9), P17(1-11) not being amidated at the C-terminal […] and the fragments P17(3-13), P17(5-13), P17(7-13) and P17(9-13) being amidated at the C-terminal. Then, the macrophages derived from human monocytes thus treated have been incubated at 37° C. for 24 hours. The production of reactive derivatives of oxygen (ROS) has been measured by chemiluminescence in the presence of 5-amino-2,3-dihydro-1,4-phthalazinedione (luminol) (EnVision; PerkinElmer). The chemiluminescence generation has been continually measured for 1 hour 30 minutes after incubation of cells with luminol (66 μM) in the presence, or not, of C. albicans (yeast ratio per macrophage: 3:1).

[2] = test system: macrophages derived from human monocytes; assay: Removal of C. albicans by macrophages derived from human monocytes (CFU); format: cell-based; details: macrophages treated with peptide 24 hours, then C. albicans 0.3 yeasts per macrophage, 4 hours; vs untreated
Method: The macrophages derived from human monocytes have been treated, or not, with the peptide P17 or fragments of it then incubated at 37° C. for 24 hours. These cells have been incubated for 40 minutes at 37° C. with C. albicans (at a ratio of 0.3 yeasts per macrophage) and the non-bound yeasts are removed by washing. These macrophages are thus incubated at 37° C. for 4 hours. After incubation, the environment has been removed and the cells have been lysed. The units forming colonies (CFU) of C. albicans have been determined on Sabouraud boxes after spreading and culturing for 48 hours at 37° C.

EL4 tumour cells = assay: Number of lymphoma T tumour cells (EL4) in the presence of murine macrophages; format: cell-based; details: co-culture with macrophages polarised by P17; vs untreated macrophages
Method: Peritoneal murine macrophages have been treated, or not, with the peptide P17 then incubated at 37° C. for 24 hours. These macrophages have been incubated for 40 minutes at 37° C. with luminescent lymphoma T cells (EL4-luc) and unbound cells are removed by washing. These macrophages are thus incubated at 37° C. for 4 hours. After incubation, the number of lymphoma T cells (EL4-luc) is evaluated by chemiluminescence.

[3] = test system: macrophages derived from human monocytes; assay: Binding and phagocytosis of C. albicans by macrophages derived from human monocytes; format: cell-based; details: macrophages treated 24 hours, GFP yeasts, vs untreated
Method: To analyse the binding and the phagocytosis of C. albicans, macrophages derived from human monocytes have been treated, or not, with the peptide P17, then incubated at 37° C. for 24 hours. The macrophages derived from human monocytes have been brought together with the yeasts marked GFP (ratio 1/6) then incubated at 4° C. for 20 minutes, in order to evaluate the binding. The phagocytosis has been evaluated after 1 hour of incubation at 37° C. The quantity of C. albicans bound or ingested by macrophages derived from human monocytes has been determined by measuring the fluorescence by using a fluorimeter (PerkinElmer EnVision).

C-type lectin receptors = assay: Protein expression of C-type lectin receptors (flow cytometry); format: cell-based, human; details: P17 200 μg/ml, 24 hours
Method: To analyse the protein level of C-type lectin receptors, the macrophages derived from human monocytes have been treated, or not, with the peptide P17 (200 μg/ml) then incubated at 37° C. for 24 hours. The cells collected have been centrifugated at 1500 rpm for 10 minutes and […] have been suspended in the PBS supplemented with 1% foetal calf serum (FCS). The cells have been marked with antibodies coupled with different fluorochromes directed against the Dectin-1 receptor (mAb; R&D FAB1859C-100, 1/40), DC-SIGN (mAb; BD Biosciences 551 265, 1/20) CD16 (mAb; PNIM 0814, 1/20), CD36 (mAb; BD Biosciences 550 956, 1/40) and the mannose receptor (specific MR (mannose receptor) ligand) conjugated FITC (Sigma A7790, 1 mg/ml 1/100)). The analysis has been carried out by flow cytometry (Becton Dickinson FACScalibur) over a population of 10000 cells.

C. albicans = assay: Experimental gastrointestinal Candida murine model; format: in vivo; details: P17 10 μg per mouse i.p., vs untreated mice
Method: For in vivo experiments, a gastrointestinal infection with the C. albicans strain 98/26135 has been established by feeding with 50×10^6 of C. albicans per mouse (n=8 per group). No antibiotic or immunosuppressant treatment has been used to facilitate the infection of mucous membranes of the oral cavity and of the gastrointestinal tract. The mice have been treated intraperitoneally (i.p.) with the peptide P17 (10 μg per mouse) or with a saline solution for control groups, 1 day before the injection with C. albicans, 1 day after infection and then every 2 days (5 injections). The body weight of each mouse has been recorded daily. On the 8th day after treatment (7 days after infection), all mice have been euthanised by asphyxiation with CO2.
The oesophagus, the stomach, the caecum and the liver have been removed aseptically to evaluate the colonisation by C. albicans. The peritoneal macrophages of the mice have been sampled and the ex vivo capacities thereof to remove and to phagocytose Candida albicans have been determined. The production of ROS, IL-(3 and IL-12 by these macrophages in response to Candida albicans have also been evaluated.

[4] = test system: macrophages derived from human monocytes; assay: Production of IL-1β, TNFα, IL-10 and IL-12 by macrophages derived from human monocytes in response to C. albicans (ELISA); format: cell-based; details: P17 24 hours then C. albicans 3:1 for 8 hours
Method: Macrophages derived from human […] have been stimulated with the peptide P17 for 24 hours, then these macrophages activated by the peptide P17 have been stimulated with C. albicans at a yeast per macrophage ratio of 3:1 for 8 hours. The production of IL-1β, TNFα, IL-10 and IL-12 in cell supernatants has been determined by ELISA (OptiElA BD Biosciences).

[5] = test system: peritoneal murine macrophages; assay: Production of ROS by murine macrophages in response to murine lymphoma T tumour cells (EL4); format: cell-based; details: murine macrophages treated with P17 24 hours
Method: To analyse the production of ROS, peritoneal murine macrophages have been treated, or not, with the peptide P17 then incubated at 37° C. for 24 hours. The production of reactive derivatives of oxygen (ROS) has been measured by chemiluminescence in the presence of 5-amino-2,3-dihydro-1,4-phthalazinedione (luminol) (EnVision; PerkinElmer). The chemiluminescence generation has been continually measured for 1 hour 30 minutes after incubation of cells with luminol […] in the presence, or not, of EL4 lymphoma T tumour cells.

Substance	production of ROS in response to C. albicans [1]	removal of C. albicans by macrophages [2]	also measured
IKAKL [P17(9-13)]	Only the fragments P17(3-13) and P17(5-13) conserve the activity		
LFKEILEKI (LFKEILEKI-OH) [P17(1-9)]	does not induce the production of ROS	does not induce the production of ROS, nor the removal of Candida albicans	
ILEKIKAKL [P17(5-13)]	conserve the activity	activity close to that of P17	
EKIKAKL [P17(7-13)]	Only the fragments P17(3-13) and P17(5-13) conserve the activity		
LFKEI (LFKEI-OH) [P17(1-5)]	does not induce the production of ROS	does not induce the production of ROS, nor the removal of Candida albicans	
LFKEILE (LFKEILE-OH) [P17(1-7)]	does not induce the production of ROS	does not induce the production of ROS, nor the removal of Candida albicans	
LFKEILEKIKA (LFKEILEKIKA-OH) [P17(1-11)]	does not induce the production of ROS	does not induce the production of ROS, nor the removal of Candida albicans	
LFKEILEKIKAKL [non-amidated P17] (LFKEILEKIKAKL-OH; listed as Tetramorium bicarinatum)	C-terminal amidation of P17 is essential to the pro-inflammatory activity		
KEILEKIKAKL [P17(3-13)]	conserve the activity	activity close to that of P17	
LFKEILEKIKAKL [P17] (LFKEILEKIKAKL-NH2)	higher production of ROS	considerably increases the capacity of human macrophages to remove in vitro C. albicans	number of EL4 tumour cells (EL4 tumour cells): decreases significantly; capacity to recognise (binding) C. albicans ([3]; 4° C. for 20 minutes): greater capacity to recognise; capacity to phagocytose C. albicans ([3]; 1 hour at 37° C.): greater capacity to recognise and to phagocytose C. albicans; expression of C-type lectin receptors on the surface of macrophages (C-type lectin receptors): overexpression of C-type lectin receptors; loss of body weight (C. albicans; mice with gastrointestinal candidiasis): lesser loss of weight; gastrointestinal colonisation by Candida albicans (C. albicans; mice): significantly lower; production of IL-1β [4]: higher production; production of TNFα [4]: higher production; production of ROS in response to EL4 tumour cells [5]: increased production of ROS
